Test results as given in patent US20240074996A1, “C5 KETONE COMPOSITIONS AND RELATED METHODS FOR TREATING METABOLIC DYSFUNCTION” (Keto Innovations, LLC, priority 2018, published 2024).

What was measured:
[1] = Visual analog scale of focus after BHP or BKP (Example 1); format: in vivo, human; conditions: scale 1-10, 10 g oral, 12 h fast
Procedure: (§1) Two (2) healthy, male subjects reported to the laboratory following a 12 hour overnight fast. Subjects were instructed to randomly consume either 10 grams of BHP or 10 grams BKP dissolved in 12 ounces of water. Subjects were then monitored for 150 minutes following drinking the mixture. Blood glucose, ketones, and visual analog scales (VAS) of well-being, energy, and focus were taken at 0, 30, 60, 90, 120, and 150 minutes. VAS scales consisted of a continuum of numbers from 1-10 with 1 being extremely low and 10 being extremely high.

[2] = short-term experiments; large supply of propionyl-CoA; cited from earlier work
[3] = Blood ketones (BHB, Abbott Precision) after oral BHP or BKP (Example 1); format: in vivo, human; conditions: 10 g oral in water, 12 h fast
Procedure: as §1
(§2) Blood ketones were measured via finger prick using an Abbott Precision device which determines mMol of BHB. Blood glucose was measured using Abbott Precision glucose strips and was measured in mg/dL.

[4] = Blood glucose after oral BHP (Example 3); format: in vivo, human; conditions: 10 g BHP oral in water
Procedure: (§3) Subjects consumed 10 grams of BHP dissolved in 12 ounces of water. Subjects were then monitored for 80 minutes following drinking the mixture. Blood glucose, ketones, and lactate were taken at 0, 20, 40, 60, and 80 minutes.
(§4) Blood ketones were measured via finger prick using an Abbott Precision device which determines mMol of BHB. Blood glucose was measured using Abbott Precision glucose strips and was measured in mg/dL. Blood lactate was measured using an Abbott Precision device which determines mMol of lactate.

[5] = Visual analog scale of energy after BHP or BKP (Example 1); format: in vivo, human; conditions: scale 1-10, 10 g oral, 12 h fast
Procedure: as §1

[6] = Blood ketones after oral BHP (Example 3); format: in vivo, human; conditions: 10 g BHP oral in water
Procedure: as §3, §4

[7] = Visual analog scale of well-being after BHP or BKP (Example 1); format: in vivo, human; conditions: scale 1-10, 10 g oral, 12 h fast
Procedure: as §1

[8] = Blood lactate after oral BHP, safety (Example 3); format: in vivo, human; conditions: 10 g BHP oral in water
Procedure: The purpose of this experiment was to determine safety associated with ingestion of exogenous C5 ketones with regard to hyperlactemia, lactic acidosis, or ketoacidosis that sometimes happens with medications, as all 3 are associated with morbidity and mortality.
as §3, §4

[9] = Blood glucose after oral BHP or BKP (Example 1); format: in vivo, human; conditions: 10 g oral in water, 12 h fast
Procedure: as §1, §2

CCC(O)CC(=O)O (stereo not drawn) [BHP, β-hydroxypentanoate]
VAS of Focus ([1]; Combined, 0 min.): 3.5 | VAS of Focus ([1]; Combined, 30 min.): 4 | VAS of Focus ([1]; Combined, 60 min.): 3 | VAS of Focus ([1]; Combined, 90 min.): 3 | VAS of Focus ([1]; Combined, 120 min.): 5 | VAS of Focus ([1]; Combined, 150 min.): 5 | VAS of Focus ([1]; Subject 1, 0 min.): 5 | VAS of Focus ([1]; Subject 1, 30 min.): 5 | VAS of Focus ([1]; Subject 1, 60 min.): 5 | VAS of Focus ([1]; Subject 1, 90 min.): 5 | VAS of Focus ([1]; Subject 1, 120 min.): 5 | VAS of Focus ([1]; Subject 1, 150 min.): 5 | VAS of Focus ([1]; Subject 2, 0 min.): 2 | VAS of Focus ([1]; Subject 2, 30 min.): 3 | VAS of Focus ([1]; Subject 2, 60 min.): 3 | VAS of Focus ([1]; Subject 2, 90 min.): 3 | VAS of Focus ([1]; Subject 2, 120 min.): 5 | VAS of Focus ([1]; Subject 2, 150 min.): 5 | Metabolism and tolerance in animals [2]: well metabolized in animals without apparent intolerance | Blood ketone levels ([3]; Combined, 0 min.): 0.1 mmol | Blood ketone levels ([3]; Combined, 30 min.): 1.6 mmol | Blood ketone levels ([3]; Combined, 60 min.): 0.55 mmol | Blood ketone levels ([3]; Combined, 90 min.): 0.2 mmol | Blood ketone levels ([3]; Combined, 120 min.): 0.3 mmol | Blood ketone levels ([3]; Combined, 150 min.): 0.2 mmol | Blood ketone levels ([3]; Subject 1, 0 min.): 0.1 mmol | Blood ketone levels ([3]; Subject 1, 30 min.): 1.8 mmol | Blood ketone levels ([3]; Subject 1, 60 min.): 0.7 mmol | Blood ketone levels ([3]; Subject 1, 90 min.): 0.2 mmol | Blood ketone levels ([3]; Subject 1, 120 min.): 0.2 mmol | Blood ketone levels ([3]; Subject 1, 150 min.): 0.2 mmol | Blood ketone levels ([3]; Subject 2, 0 min.): 0.1 mmol | Blood ketone levels ([3]; Subject 2, 30 min.): 1.4 mmol | Blood ketone levels ([3]; Subject 2, 60 min.): 0.4 mmol | Blood ketone levels ([3]; Subject 2, 90 min.): 0.2 mmol | Blood ketone levels ([3]; Subject 2, 120 min.): 0.4 mmol | Blood ketone levels ([3]; Subject 2, 150 min.): 0.2 mmol | Blood Glucose ([4]; 0 min.): 99.5 mg/dL | Blood Glucose ([4]; 20 min.): 103 mg/dL | Blood Glucose ([4]; 40 min.): 102.5 mg/dL | Blood Glucose ([4]; 60 min.): 94.5 mg/dL | Blood Glucose ([4]; 80 min.): 92.5 mg/dL | VAS of Energy ([5]; Combined, 0 min.): 4 | VAS of Energy ([5]; Combined, 30 min.): 3.5 | VAS of Energy ([5]; Combined, 60 min.): 3.5 | VAS of Energy ([5]; Combined, 90 min.): 5 | VAS of Energy ([5]; Combined, 120 min.): 4.5 | VAS of Energy ([5]; Combined, 150 min.): 6 | VAS of Energy ([5]; Subject 1, 0 min.): 5 | VAS of Energy ([5]; Subject 1, 30 min.): 4 | VAS of Energy ([5]; Subject 1, 60 min.): 5 | VAS of Energy ([5]; Subject 1, 90 min.): 7 | VAS of Energy ([5]; Subject 1, 120 min.): 5 | VAS of Energy ([5]; Subject 1, 150 min.): 7 | VAS of Energy ([5]; Subject 2, 0 min.): 3 | VAS of Energy ([5]; Subject 2, 30 min.): 3 | VAS of Energy ([5]; Subject 2, 60 min.): 2 | VAS of Energy ([5]; Subject 2, 90 min.): 3 | VAS of Energy ([5]; Subject 2, 120 min.): 4 | VAS of Energy ([5]; Subject 2, 150 min.): 5 | Blood Ketones ([6]; 0 min.): 0.3 mmol/L | Blood Ketones ([6]; 20 min.): 0.6 mmol/L | Blood Ketones ([6]; 40 min.): 1.8 mmol/L | Blood Ketones ([6]; 60 min.): 1.1 mmol/L | Blood Ketones ([6]; 80 min.): 0.5 mmol/L | VAS of Well-Being ([7]; Combined, 0 min.): 6 | VAS of Well-Being ([7]; Combined, 30 min.): 5 | VAS of Well-Being ([7]; Combined, 60 min.): 4.5 | VAS of Well-Being ([7]; Combined, 90 min.): 6 | VAS of Well-Being ([7]; Combined, 120 min.): 4.5 | VAS of Well-Being ([7]; Combined, 150 min.): 5 | VAS of Well-Being ([7]; Subject 1, 0 min.): 7 | VAS of Well-Being ([7]; Subject 1, 30 min.): 5 | VAS of Well-Being ([7]; Subject 1, 60 min.): 5 | VAS of Well-Being ([7]; Subject 1, 90 min.): 7 | VAS of Well-Being ([7]; Subject 1, 120 min.): 5 | VAS of Well-Being ([7]; Subject 1, 150 min.): 6 | VAS of Well-Being ([7]; Subject 2, 0 min.): 5 | VAS of Well-Being ([7]; Subject 2, 30 min.): 5 | VAS of Well-Being ([7]; Subject 2, 60 min.): 4 | VAS of Well-Being ([7]; Subject 2, 90 min.): 5 | VAS of Well-Being ([7]; Subject 2, 120 min.): 4 | VAS of Well-Being ([7]; Subject 2, 150 min.): 4 | Blood Lactate ([8]; 0 min.): 1.3 mmol/L | Blood Lactate ([8]; 20 min.): 1.4 mmol/L | Blood Lactate ([8]; 40 min.): 0.7 mmol/L | Blood Lactate ([8]; 60 min.): 0.9 mmol/L | Blood Lactate ([8]; 80 min.): 1.1 mmol/L | Blood glucose levels ([9]; Combined, 0 min.): 84 mg/dL | Blood glucose levels ([9]; Combined, 30 min.): 80.5 mg/dL | Blood glucose levels ([9]; Combined, 60 min.): 70.5 mg/dL | Blood glucose levels ([9]; Combined, 90 min.): 79 mg/dL | Blood glucose levels ([9]; Combined, 120 min.): 83.5 mg/dL | Blood glucose levels ([9]; Combined, 150 min.): 90.5 mg/dL | Blood glucose levels ([9]; Subject 1, 0 min.): 84 mg/dL | Blood glucose levels ([9]; Subject 1, 30 min.): 85 mg/dL | Blood glucose levels ([9]; Subject 1, 60 min.): 75 mg/dL | Blood glucose levels ([9]; Subject 1, 90 min.): 79 mg/dL | Blood glucose levels ([9]; Subject 1, 120 min.): 86 mg/dL | Blood glucose levels ([9]; Subject 1, 150 min.): 91 mg/dL | Blood glucose levels ([9]; Subject 2, 0 min.): 84 mg/dL | Blood glucose levels ([9]; Subject 2, 30 min.): 76 mg/dL | Blood glucose levels ([9]; Subject 2, 60 min.): 66 mg/dL | Blood glucose levels ([9]; Subject 2, 90 min.): 79 mg/dL | Blood glucose levels ([9]; Subject 2, 120 min.): 81 mg/dL | Blood glucose levels ([9]; Subject 2, 150 min.): 90 mg/dL
